# From US10316038B2, “Pyrrolopyrimidine ITK inhibitors for treating inflammation and cancer” (ACLARIS THERAPEUTICS, INC., priority 2017, dated 2019)
# What was measured:
# [1] = system: ITK phosphorylation of its substrate, PLCγ1, at Y783; test: ITK target modulation assay (phospho-Y783 PLCγ1 immunoblot in Jurkat T cells); format: cell-based; settings: Homo sapiens, Jurkat, 2 h, 2 hours compound, CD3/CD28 Dynabeads stimulation 100 sec, anti-phospho-Y783 PLCγ1 immunoblot, read-out: PLC-γ Inhibition IC50
# Procedure, shortened: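 Human Jurkat T cells (4 million per tube) were pretreated with compound for 2 hours at 37° C. They were then stimulated with CD3/CD28 Dynabeads (1 bead per cell) for 100 sec and lysed. Lysates were resolved by SDS-PAGE and immunoblotted for phospho-PLCγ1, with HRP secondary antibody and ECL detection.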
# ITK = molecular target: T1, ITK (Homo sapiens, UniProt Q08881); test: ITK inhibitor binding potency (LanthaScreen competitive binding assay); settings: TR-FRET competitive binding, 10 nM ITK, 50 nM kinase tracer-236; pre-incubation condition not given; read-out: ITK Inhibition IC50
# T1 sequence (Q08881 1-620): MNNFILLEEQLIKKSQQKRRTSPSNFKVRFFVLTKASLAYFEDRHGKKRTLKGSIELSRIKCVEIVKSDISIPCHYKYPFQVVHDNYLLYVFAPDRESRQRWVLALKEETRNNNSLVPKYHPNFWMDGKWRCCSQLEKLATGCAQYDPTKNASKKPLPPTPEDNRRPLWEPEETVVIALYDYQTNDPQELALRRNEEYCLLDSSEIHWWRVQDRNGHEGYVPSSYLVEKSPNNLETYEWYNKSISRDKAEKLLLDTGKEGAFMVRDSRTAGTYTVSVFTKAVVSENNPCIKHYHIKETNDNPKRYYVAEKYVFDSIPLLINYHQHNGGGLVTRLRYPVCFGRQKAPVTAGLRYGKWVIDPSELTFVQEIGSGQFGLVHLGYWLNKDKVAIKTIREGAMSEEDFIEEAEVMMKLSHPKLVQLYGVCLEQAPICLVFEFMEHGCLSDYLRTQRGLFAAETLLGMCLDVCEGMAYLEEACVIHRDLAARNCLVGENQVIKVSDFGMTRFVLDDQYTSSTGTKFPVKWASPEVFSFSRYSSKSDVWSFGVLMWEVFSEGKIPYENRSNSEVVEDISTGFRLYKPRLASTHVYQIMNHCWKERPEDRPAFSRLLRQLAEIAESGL
# Procedure, shortened: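 TR-FRET tracer displacement using 10 nM ITK, 2 nM Eu-anti-GST antibody, 50 nM kinase tracer-236 in 20 mM HEPES pH 7.5, 10 mM MgCl2, 0.01% BSA, 0.0005% Tween-20, 2% DMSO. Run with or without 2 h compound–ITK pre-incubation before tracer; 11-point dose-response 20 uM–0.34 nM, IC50 from 4-parameter fit of emission ratio.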
Structure (SMILES),IC50 [1] [µM],IC50 (ITK) [µM]
"C=CC(=O)Nc1cc(-c2cnc3[nH]cc(-c4ccnc(C#N)c4)c3c2)cc(-c2cnn(C)c2)c1 [Example 21, N-(3-(3-(2-cyano-pyridin-4-yl)-1H-pyrrolo[2,3-b]pyridin-5-yl)-5-(1-methyl-1H-pyrazol-4-yl)-phenyl)acrylamide]",≤ 1,≤ 0.1
"CN(C)C/C=C/C(=O)N(C)c1cncc(-c2cnc3[nH]cc(-c4cccc(C#N)c4)c3c2)c1 [Example 72, (E)-N-(5-(3-(3-cyanophenyl)-1H-pyrrolo[2,3-b]-pyridin-5-yl)-pyridin-3-yl)-4-(dimethylamino)-N-methylbut-2-enamide]",1 to 5,≤ 0.1
"COc1cc(NC(=O)/C=C/CN(C)C)cc(-c2cnc3[nH]cc(-c4ccnc5[nH]ccc45)c3c2)c1 [Example 31, (E)-N-(3-(1H,1′H-[3,4′-bipyrrolo[2,3-b]pyridin]-5-yl)-5-methoxyphenyl)-4-(dimethylamino)-but-2-enamide]",≤ 1,≤ 0.1
"C=CC(=O)Nc1cc(-c2cnc3[nH]cc(-c4cnc(OC)nc4)c3c2)cc(C(F)(F)F)c1 [Example 68, N-(3-(3-(2-methoxy-pyrimidin-5-yl)-1H-pyrrolo[2,3-b]pyridin-5-yl)-5-(trifluoromethyl)-phenyl)acrylamide]",≤ 1,≤ 0.1

# Now from value to compound:
IC50 [1] [µM],IC50 (ITK) [µM],Structure (SMILES)
≤ 1,≤ 0.1,"C=CC(=O)Nc1cc(-c2cnc3[nH]cc(-c4cncc(C#N)c4)c3c2)cc(C(F)(F)F)c1 [Example 12, N-(3-(3-(5-cyano-pyridin-3-yl)-1H-pyrrolo[2,3-b]-pyridin-5-yl)-5-(trifluoromethyl)-phenyl)acrylamide]"
> 5,≤ 1,"C=CC(=O)Nc1cc(-c2cnc3[nH]cc(-c4cccc(C)c4)c3c2)cc(C(F)(F)F)c1 [Example 59, N-(3-(3-(m-tolyl)-1H-pyrrolo[2,3-b]-pyridin-5-yl)-5-(trifluoromethyl)-phenyl)acrylamide]"
≤ 1,≤ 0.1,"CN(C)C/C=C/C(=O)Nc1cncc(-c2cnc3[nH]cc(-c4cccc(C#N)c4)c3c2)c1 [Example 20, (E)-N-(5-(3-(3-cyanophenyl)-1H-pyrrolo[2,3-b]pyridin-5-yl)pyridin-3-yl)-4-(dimethyl-amino)but-2-enamide]"
≤ 1,≤ 0.1,"CN(C)C/C=C/C(=O)Nc1cc(-c2cnc3[nH]cc(-c4ccnc(C#N)c4)c3c2)cc(C(F)(F)F)c1 [Example 40, (E)-N-(3-(3-(2-cyanopyridin-4-yl)-1H-pyrrolo-[2,3-b]pyridin-5-yl)-5-(trifluoro-methyl)phenyl)-4-(dimethyl-amino)but-2-enamide]"
